The values below come from patent publication US11198673B2, “Therapeutic compounds and compositions” (eXIthera Pharmaceuticals, Inc., priority 2014, dated 2021).

A value given as a limit tells only on which side of the number the result lay.

The IC50 is the concentration that inhibits the measured activity by half.

One data set concerns the target T1, Thrombin (Homo sapiens, UniProt P00734).
T1 construct: Thrombin; 0.2 μM in 50% glycerol (7.34 μg/mL)
Kind of data set: Dose response assay for protease inhibitors: thrombin (FXIa fold selectivity). In kind it is biochemical. The note with it: fold selectivity for FXIa over thrombin. The protocol:
(§1) • Assay buffer: 20 mM Hepes, pH 7.4; 150 mM NaCl; 0.02% Tween 20 • Compounds: 10 mM stocks in DMSO • Substrate: 20 mM Glp-Pro-Arg-AMC, 25 mg/2.3 mL H2O (store at +4° C.) [Factor XIa, thrombin, and trypsin] • 20 mM Pro-Phe-Arg-AMC (Bachem I-1295), 25 mg/2.2 mL H2O (store at +4° C.) [Factor Xa] • Enzyme: Factor XIa; 0.25 μM in 50% glycerol (20 μg/mL) • Trypsin; 0.2 μM in 50% glycerol (4.8 μg/mL) • Thrombin; 0.2 μM in 50% glycerol (7.34 μg/mL) • Factor Xa; 0.2 μM in 50% glycerol (9.2 μg/mL) • These stocks are aliquoted ([…]) and stored at −20° C. Methods: • 1. Dilute the substrate to 100 μM in assay buffer (30 μL/6 mL). The enzyme is diluted to 0.5 nM just prior to use (12 μL/6 mL for Factor XIa; 15 μL/6 mL for all of the rest.) • 2. Pipette 50 μL of substrate into each well of the 96 well (12×8) microtiter plate. (Column 1 is used as the 100% activity control and receives no compound, and Column 12 is the blank and receives no enzyme.) Add an additional 46 μL to column 2. • 3. Pipette 4 μL of each compound into the appropriate well in column 2 of the plate (unknowns assayed in triplicate, standard assayed in duplicate). The final compound concentration will be 1/50th of the stock. • 4. Serially two-fold dilute the compound by mixing the sample in column 2, removing 50 μL to the next well (column 3), mix and remove to column 4, etc. until column 11. After mixing column 11, remove 50 μL and discard. • 5. Pipette 50 μL of buffer into column 12. Initiate the reaction by adding 50 μL of enzyme solution to each well of columns 1-11 as rapidly as possible. • 6. Read the plate in a spectrophotometer (SpectraMax) at 30° C., wherein each well is measured every 60 s for 30 min. For Factor Xa assays, each well is measured every 1 min for a total of 60 min. • 7. For Factor XIa assays, the compounds are assayed, in duplicate, at 3 different starting concentrations, 20, 2, and 0.2 μM; 1:10, 1:100, and 1:1000 dil'n of 10 mM stock. All data sets are combined for graphing and data fitting. • 8. Data can be used both for estimation of IC50 and for estimation of Kon.
Consider `CC(NC(=O)N1C(=O)[C@H](Cc2ccnc(N)c2)[C@H]1C(=O)O)c1cccc(F)c1` (stereo partly shown) [Example 42], for which the “FXIa Fold Selectivity Thrombin” value is “I (“I” indicates >1000)”.

As for `CCC[C@@H](NC(=O)N1C(=O)[C@H](Cc2ccnc(N)c2)[C@H]1C(=O)O)c1ccc2c(c1)OC(F)(F)O2` [Example 89], the “FXIa Fold Selectivity Thrombin” value is “I (“I” indicates >1000)”.

`Nc1cc(C[C@H]2C(=O)N(C(=O)NCC(c3ccccc3)c3ccccc3)[C@@H]2C(=O)O)ccn1` [Example 31]: the “FXIa Fold Selectivity Thrombin” value is “G (“G” indicates 1-500)”.

Turning to `O=C(O)[C@@H]1[C@@H](Cc2ccncc2)C(=O)N1C(=O)N[C@@H](C1CCCCC1)C(F)(F)F` [Example 135], the “FXIa Fold Selectivity Thrombin” value is “G (“G” indicates 1-500)”.

For `C[C@@H](NC(=O)N1C(=O)[C@H](Cc2ccnc(N)c2)[C@H]1S(C)(=O)=O)c1ccccc1` [Example 39], the “FXIa Fold Selectivity Thrombin” value is recorded as “G (“G” indicates 1-500)”.

With `Nc1cc(C[C@H]2C(=O)N(C(=O)NCc3cccc4ccccc34)[C@@H]2C(=O)O)ccn1` [Example 43], the “FXIa Fold Selectivity Thrombin” value is listed as “G (“G” indicates 1-500)”.

For the compound `O=C(O)[C@@H]1[C@@H](CCc2cccc(Cl)c2F)C(=O)N1C(=O)N[C@@H](C1CCCCC1)C(F)(F)F` [Example 156], the “FXIa Fold Selectivity Thrombin” value was “I (“I” indicates >1000)”.

With `Nc1cc(C[C@H]2C(=O)N(C(=O)NCc3ccccc3)[C@@H]2C(=O)O)ccn1` [Example 48], the “FXIa Fold Selectivity Thrombin” value was “G (“G” indicates 1-500)”.

The next data set concerns Trypsin. In words: Dose response assay for protease inhibitors: trypsin (FXIa fold selectivity). In kind it is biochemical. Conditions: fold selectivity for FXIa over trypsin. As for the experimental part: as §1
In the case of `CC(NC(=O)N1C(=O)[C@H](Cc2ccnc(N)c2)[C@H]1C(=O)O)c1cccc(F)c1` (stereo partly shown) [Example 42], the “FXIa Fold Selectivity Trypsin” value is reported as “H (“H” indicates 500-1000)”.

For the compound `CCC[C@@H](NC(=O)N1C(=O)[C@H](Cc2ccnc(N)c2)[C@H]1C(=O)O)c1ccc2c(c1)OC(F)(F)O2` [Example 89], the “FXIa Fold Selectivity Trypsin” value is “G (“G” indicates 1-500)”.

For the compound `Nc1cc(C[C@H]2C(=O)N(C(=O)NCC(c3ccccc3)c3ccccc3)[C@@H]2C(=O)O)ccn1` [Example 31], the “FXIa Fold Selectivity Trypsin” value is given as “G (“G” indicates 1-500)”.

In the case of `O=C(O)[C@@H]1[C@@H](Cc2ccncc2)C(=O)N1C(=O)N[C@@H](C1CCCCC1)C(F)(F)F` [Example 135], the “FXIa Fold Selectivity Trypsin” value is recorded as “G (“G” indicates 1-500)”.

Turning to `C[C@@H](NC(=O)N1C(=O)[C@H](Cc2ccnc(N)c2)[C@H]1S(C)(=O)=O)c1ccccc1` [Example 39], the “FXIa Fold Selectivity Trypsin” value is reported as “G (“G” indicates 1-500)”.

In the case of `Nc1cc(C[C@H]2C(=O)N(C(=O)NCc3cccc4ccccc34)[C@@H]2C(=O)O)ccn1` [Example 43], the “FXIa Fold Selectivity Trypsin” value is on record as “G (“G” indicates 1-500)”.

Regarding `O=C(O)[C@@H]1[C@@H](CCc2cccc(Cl)c2F)C(=O)N1C(=O)N[C@@H](C1CCCCC1)C(F)(F)F` [Example 156], the “FXIa Fold Selectivity Trypsin” value was “I (“I” indicates >1000)”.

As to `Nc1cc(C[C@H]2C(=O)N(C(=O)NCc3ccccc3)[C@@H]2C(=O)O)ccn1` [Example 48], the “FXIa Fold Selectivity Trypsin” value is on record as “G (“G” indicates 1-500)”.

For the next data set, the target named is T2, Factor Xa (Homo sapiens, UniProt P00742).
T2 construct: Factor Xa; 0.2 μM in 50% glycerol (9.2 μg/mL)
T2 sequence (P00742 235-488 limits assumed): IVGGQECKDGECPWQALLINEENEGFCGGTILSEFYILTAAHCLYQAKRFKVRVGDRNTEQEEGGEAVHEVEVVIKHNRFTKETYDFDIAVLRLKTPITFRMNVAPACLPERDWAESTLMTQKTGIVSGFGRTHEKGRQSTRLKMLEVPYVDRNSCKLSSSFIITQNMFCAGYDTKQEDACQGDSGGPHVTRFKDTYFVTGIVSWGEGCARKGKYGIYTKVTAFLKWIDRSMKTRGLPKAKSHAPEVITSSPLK
T2 sequence (P00742 41-179 partner limits assumed): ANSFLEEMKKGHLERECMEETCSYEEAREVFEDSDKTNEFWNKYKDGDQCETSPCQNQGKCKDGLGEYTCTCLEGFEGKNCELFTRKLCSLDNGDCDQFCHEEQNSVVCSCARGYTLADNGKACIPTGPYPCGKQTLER
In words: Dose response assay for protease inhibitors: Factor Xa (FXIa fold selectivity). In kind it is biochemical. Conditions: fold selectivity for FXIa over Factor Xa. The protocol:
as §1
In the case of `CC(NC(=O)N1C(=O)[C@H](Cc2ccnc(N)c2)[C@H]1C(=O)O)c1cccc(F)c1` (stereo partly shown) [Example 42], the “FXIa Fold Selectivity FXa” value was “I (“I” indicates >1000)”.

On to `CCC[C@@H](NC(=O)N1C(=O)[C@H](Cc2ccnc(N)c2)[C@H]1C(=O)O)c1ccc2c(c1)OC(F)(F)O2` [Example 89], for which the “FXIa Fold Selectivity FXa” value is “G (“G” indicates 1-500)”.

Consider `Nc1cc(C[C@H]2C(=O)N(C(=O)NCC(c3ccccc3)c3ccccc3)[C@@H]2C(=O)O)ccn1` [Example 31], for which the “FXIa Fold Selectivity FXa” value was “G (“G” indicates 1-500)”.

As for `O=C(O)[C@@H]1[C@@H](Cc2ccncc2)C(=O)N1C(=O)N[C@@H](C1CCCCC1)C(F)(F)F` [Example 135], the “FXIa Fold Selectivity FXa” value is “G (“G” indicates 1-500)”.

`C[C@@H](NC(=O)N1C(=O)[C@H](Cc2ccnc(N)c2)[C@H]1S(C)(=O)=O)c1ccccc1` [Example 39]: the “FXIa Fold Selectivity FXa” value is listed as “G (“G” indicates 1-500)”.

For the compound `Nc1cc(C[C@H]2C(=O)N(C(=O)NCc3cccc4ccccc34)[C@@H]2C(=O)O)ccn1` [Example 43], the “FXIa Fold Selectivity FXa” value is “G (“G” indicates 1-500)”.

For the compound `O=C(O)[C@@H]1[C@@H](CCc2cccc(Cl)c2F)C(=O)N1C(=O)N[C@@H](C1CCCCC1)C(F)(F)F` [Example 156], the “FXIa Fold Selectivity FXa” value is given as “H (“H” indicates 500-1000)”.

Take `Nc1cc(C[C@H]2C(=O)N(C(=O)NCc3ccccc3)[C@@H]2C(=O)O)ccn1` [Example 48]: the “FXIa Fold Selectivity FXa” value was “G (“G” indicates 1-500)”.

The target in another data set is T3, human Factor XIa (Homo sapiens, UniProt P03951).
T3 construct: Enzyme: Factor XIa; 0.25 μM in 50% glycerol (20 μg/mL)
T3 sequence (P03951 388-625 limits assumed): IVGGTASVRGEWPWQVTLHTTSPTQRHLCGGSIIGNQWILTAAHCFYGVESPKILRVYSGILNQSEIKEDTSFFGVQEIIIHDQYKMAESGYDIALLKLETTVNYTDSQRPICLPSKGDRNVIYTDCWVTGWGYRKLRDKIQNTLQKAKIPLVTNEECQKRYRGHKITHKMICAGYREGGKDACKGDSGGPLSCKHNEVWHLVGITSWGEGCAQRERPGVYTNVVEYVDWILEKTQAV
T3 sequence (P03951 19-387 partner limits assumed): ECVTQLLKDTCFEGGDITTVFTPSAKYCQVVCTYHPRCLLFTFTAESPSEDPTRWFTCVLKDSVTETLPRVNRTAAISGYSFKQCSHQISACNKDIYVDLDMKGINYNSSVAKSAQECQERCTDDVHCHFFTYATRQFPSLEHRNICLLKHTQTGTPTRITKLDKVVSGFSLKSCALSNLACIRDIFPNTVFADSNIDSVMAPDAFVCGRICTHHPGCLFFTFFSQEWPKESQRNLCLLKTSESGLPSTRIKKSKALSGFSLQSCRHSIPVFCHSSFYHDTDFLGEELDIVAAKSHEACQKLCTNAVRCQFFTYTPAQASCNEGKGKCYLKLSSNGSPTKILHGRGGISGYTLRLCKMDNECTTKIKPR
Kind of data set: Factor XIa enzyme inhibition assay (IC50, purified enzyme). Conditions: purified enzyme 0.25 nM, substrate 50 μM; read-out: Potency hFXIa IC50. In kind it is biochemical. The protocol: as §1
Potential inhibitors of Factor XIa were evaluated using the following assay.
S-2366, pyroGlu-Pro-Arg-7-methylaminocourin (AMC), available from CPC Scientific, Inc., is based on the substrate pyro-Glu-Pro-Arg-pNA, available from Diapharma Group, Inc. (Columbus, Ohio), where the p-nitroanaline group is replaced with 7-methylaminocoumarin (AMC).
The final concentration of the substrate in the assay was 50 μM, and the final concentration of the enzyme was 0.25 nM. Inhibitors were tested by serial dilution over an appropriate range to yield a dose response curve for determination of the inhibitors' IC50 value. The assay mixture was read every minute for 30 minutes in order to generate progress curves. The plates were read in a Spectramax m5 Multimode Plate Reader (Molecular Devices LLC, Sunnyvale, Calif.). Dose response curves were fit to Equation 1 below in which A is the maximum inhibition, B is the minimum inhibition, C is the IC50, and D is the Hill coefficient. [(A−B)/(1+(X/C)^D)]+B (Equation 1)
Consider `CC(NC(=O)N1C(=O)[C@H](Cc2ccnc(N)c2)[C@H]1C(=O)O)c1cccc(F)c1` (stereo partly shown) [Example 42], for which the IC50 was below 0.01 µM.

In the case of `CCC[C@@H](NC(=O)N1C(=O)[C@H](Cc2ccnc(N)c2)[C@H]1C(=O)O)c1ccc2c(c1)OC(F)(F)O2` [Example 89], the IC50 is below 0.01 µM.

Regarding `Nc1cc(C[C@H]2C(=O)N(C(=O)NCC(c3ccccc3)c3ccccc3)[C@@H]2C(=O)O)ccn1` [Example 31], the IC50 lay in the range of 0.1 to 1 µM.

As for `O=C(O)[C@@H]1[C@@H](Cc2ccncc2)C(=O)N1C(=O)N[C@@H](C1CCCCC1)C(F)(F)F` [Example 135], the IC50 is 0.1 to 1 µM.

Regarding `C[C@@H](NC(=O)N1C(=O)[C@H](Cc2ccnc(N)c2)[C@H]1S(C)(=O)=O)c1ccccc1` [Example 39], the IC50 lay in the range of 0.1 to 1 µM.

`Nc1cc(C[C@H]2C(=O)N(C(=O)NCc3cccc4ccccc34)[C@@H]2C(=O)O)ccn1` [Example 43]: the IC50 is 0.01 to 0.1 µM.

Take `O=C(O)[C@@H]1[C@@H](CCc2cccc(Cl)c2F)C(=O)N1C(=O)N[C@@H](C1CCCCC1)C(F)(F)F` [Example 156]: the IC50 is 0.1 to 1 µM.

In the case of `Nc1cc(C[C@H]2C(=O)N(C(=O)NCc3ccccc3)[C@@H]2C(=O)O)ccn1` [Example 48], the IC50 is 0.1 to 1 µM.

Test system in a further data set: not listed separately
In words: β-Lactam stability in rat plasma. In kind it is in vitro ADME. Conditions: normal rat plasma, room temperature; read-out: Rat Plasma Stability (T1/2; min). The protocol:
Normal rat plasma, stored at −80° C.
• 1. Place 6 μL of each compound into 0.5 mL microcentrifuge tubes or 96-well U-bottom, polypropylene microtiter plate • 2. Place 40 μL of acetonitrile (AcN) into 0.5 mL microcentrifuge tubes labeled 1-9 • 3. Add 114 μL of plasma to each compound • 4. Sample 10 μL of compound/plasma into AcN at 2, 10, 20, 30, 60, 90, 120, 240, and 480 min of incubation at room temperature • 5. Mix each time point after adding sample and place on ice. • 6. Centrifuge time points (12,000 rpm, 3 min), remove 15 μL of the supernatant and mix with 15 μL 0.1% TFA in a V-bottom microtiter plate. • 7. Place microtiter plate in autosampler of HPLC and analyze on Restek Pinnacle C18 column (2.1×100 mm). • 8. Generate extracted ion chromatogram for parent compound and parent compound+18 (H2O). Integrate extracted ion chromatograms (EIC) and plot % total peak area for parent and adduct versus time. Fit to a model of single phase exponential decay [Y=A0*exp(−k*x)+C]. T½ is equal to ln(2)/k.
`CC(NC(=O)N1C(=O)[C@H](Cc2ccnc(N)c2)[C@H]1C(=O)O)c1cccc(F)c1` (stereo partly shown) [Example 42]: the half-life is above 1.67 h.

Consider `CCC[C@@H](NC(=O)N1C(=O)[C@H](Cc2ccnc(N)c2)[C@H]1C(=O)O)c1ccc2c(c1)OC(F)(F)O2` [Example 89], for which the half-life was above 1.67 h.

Consider `Nc1cc(C[C@H]2C(=O)N(C(=O)NCC(c3ccccc3)c3ccccc3)[C@@H]2C(=O)O)ccn1` [Example 31], for which the half-life is above 1.67 h.

In the case of `O=C(O)[C@@H]1[C@@H](Cc2ccncc2)C(=O)N1C(=O)N[C@@H](C1CCCCC1)C(F)(F)F` [Example 135], the half-life was above 1.67 h.

Take `C[C@@H](NC(=O)N1C(=O)[C@H](Cc2ccnc(N)c2)[C@H]1S(C)(=O)=O)c1ccccc1` [Example 39]: the half-life was below 1.67 h.

In the case of `Nc1cc(C[C@H]2C(=O)N(C(=O)NCc3cccc4ccccc34)[C@@H]2C(=O)O)ccn1` [Example 43], the half-life was above 1.67 h.

On to `O=C(O)[C@@H]1[C@@H](CCc2cccc(Cl)c2F)C(=O)N1C(=O)N[C@@H](C1CCCCC1)C(F)(F)F` [Example 156], for which the half-life is above 1.67 h.

Consider `Nc1cc(C[C@H]2C(=O)N(C(=O)NCc3ccccc3)[C@@H]2C(=O)O)ccn1` [Example 48], for which the half-life was above 1.67 h.
